Source: PubChem BioAssay AID623876 (Vanderbilt Specialized Chemistry Center, 2012)
“And” between values parts separate entries of the source, which are not always exact repeats. Identical values can stand only once. The source made the active and inactive calls.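 How the source made its calls: active means mean EC50 dose giving half the maximal effect below 30 µM; inactive means mean EC50 of 30 µM or more.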

Target: Metabotropic glutamate receptor 4 (Homo sapiens) (UniProt Q14833)
Assay: potentiation of human mGlu4 glutamate response – CHO Gqi5 cells, calcium mobilization, SAR follow-up (AID 623876)
Conditions: CHO hmGlu4/Gqi5 calcium mobilization, PAM at EC20 glutamate; for % glutamate max response: hits give high values

Sequence of Metabotropic glutamate receptor 4 (Homo sapiens) (Q14833 whole entry, looked up): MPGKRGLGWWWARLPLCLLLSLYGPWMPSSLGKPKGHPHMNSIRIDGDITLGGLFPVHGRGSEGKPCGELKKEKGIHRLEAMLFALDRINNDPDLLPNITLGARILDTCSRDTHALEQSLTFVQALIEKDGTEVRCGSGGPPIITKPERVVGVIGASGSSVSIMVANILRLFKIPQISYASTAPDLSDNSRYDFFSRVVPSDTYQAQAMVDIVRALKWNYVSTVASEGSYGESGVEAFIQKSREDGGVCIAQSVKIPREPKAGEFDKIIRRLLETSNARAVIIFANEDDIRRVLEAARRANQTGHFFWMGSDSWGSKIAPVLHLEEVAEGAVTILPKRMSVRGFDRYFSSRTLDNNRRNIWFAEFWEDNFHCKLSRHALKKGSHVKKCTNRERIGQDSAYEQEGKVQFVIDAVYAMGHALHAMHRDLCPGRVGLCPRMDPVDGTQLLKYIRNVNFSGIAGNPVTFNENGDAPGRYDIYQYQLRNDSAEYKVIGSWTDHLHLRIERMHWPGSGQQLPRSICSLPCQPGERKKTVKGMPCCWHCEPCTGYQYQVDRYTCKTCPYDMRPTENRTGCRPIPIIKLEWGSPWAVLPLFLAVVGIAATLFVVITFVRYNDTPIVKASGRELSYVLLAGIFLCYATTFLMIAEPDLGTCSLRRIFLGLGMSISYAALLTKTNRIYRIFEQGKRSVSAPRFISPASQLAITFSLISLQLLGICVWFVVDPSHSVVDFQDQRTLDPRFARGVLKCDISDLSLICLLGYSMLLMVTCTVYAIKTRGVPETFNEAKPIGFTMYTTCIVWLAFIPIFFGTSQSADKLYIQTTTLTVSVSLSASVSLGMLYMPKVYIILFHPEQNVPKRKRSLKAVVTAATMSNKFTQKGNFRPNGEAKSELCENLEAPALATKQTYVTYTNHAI

% glutamate max response | EC50 | Compound
inactive | – | Clc1cccc(Nc2nccc3cccnc23)c1
inactive | – | O=C1c2cccnc2C(=O)N1c1cccc(Cl)c1
inactive | – | COc1cc(Nc2nc3ccccc3o2)ccc1Cl
inactive | – | c1ccc(Nc2ncnc3cccnc23)cc1
inactive | – | c1ccc(Nc2coc3cccnc23)cc1
inactive | – | Fc1ccc(Nc2ncnc3cccnc23)cc1F
inactive | – | O=C(c1ccccn1)N1CCOc2ccc(Cl)cc21
– | > 10 µM | O=C(Nc1nc(C(F)(F)F)cs1)c1ccccn1
inactive | – | COc1cc(Nc2nccc3ccccc23)ccc1Cl
inactive | – | FC(F)(F)c1cccc(-c2nc(-c3ccccn3)no2)c1
inactive | – | Brc1cccc(-c2nc(-c3ccccn3)no2)c1
– | > 10 µM | COc1cc2nc(-c3ccccn3)[nH]c2cc1Cl
– | 3.82 µM | O=C(Nc1ccc2c(c1)C(=O)NC2=O)c1ccccn1
inactive | – | O=C(c1ccccn1)N(Cc1ccccn1)c1cccc(Cl)c1
– | 1.19 µM | Fc1cccc(Nc2noc3cccnc23)c1
inactive | – | Cc1nsc(NC(=O)c2ccccn2)n1
– | > 10 µM | Clc1cccc(Nc2ccccn2)c1
– | > 10 µM | COc1cc2nc(-c3ncc[nH]3)[nH]c2cc1Cl
– | 1.37 µM | O=C(Nc1ccc2cn[nH]c2c1)c1ccccn1
– | > 10 µM | O=C(Nc1ccc2cc[nH]c2c1)c1ccccn1
inactive | – | O=C(NCc1cccc(Cl)c1)c1ccccn1
inactive | – | Clc1cccc(Nc2nccc3ccccc23)c1
– | > 10 µM | CC(C)N(C(=O)c1ccccn1)c1cccc(Cl)c1

% glutamate max response | EC50 | Compound
inactive | – | O=C1COc2cc(NC(=O)c3ccccn3)ccc2N1
inactive | – | COc1cc(NS(=O)(=O)c2ccccn2)ccc1Cl
inactive | – | O=C(c1cccs1)N1CCOc2ccc(Cl)cc21
inactive | – | COc1cc(NC(=O)c2c(F)cccc2F)ccc1Cl
– | > 10 µM | COc1cc(NC(=O)c2ccccc2F)ccc1Cl
– | > 10 µM | Fc1ccc2nc(-c3ccccn3)[nH]c2c1
inactive | – | Cn1cnc(NC(=O)c2ccccn2)n1
inactive | – | O=C(c1ccccn1)N1CCOc2c(Cl)cccc21
inactive | – | COc1cc(NC(=O)c2ccccc2C)ccc1Cl
inactive | – | COc1cc(OC)cc(-c2nc(-c3ccccn3)no2)c1
inactive | – | Clc1cccc(Nc2cccc3cccnc23)c1
inactive | – | Cn1ccnc1NC(=O)c1ccccn1
inactive | – | Fc1ccc(Nc2ncnc3cccnc23)cc1Cl
inactive | – | COc1cc(N2C(=O)c3ccccc3C2=O)ccc1Cl
inactive | – | COc1cc(NC(C)=O)ccc1Cl
inactive | – | O=C(NCCc1cccc(Cl)c1)c1ccccn1
inactive | – | COc1cc(Nc2ncn3ccccc23)ccc1Cl
– | 4.68 µM | Clc1ccc2nc(-c3ccccn3)[nH]c2c1
inactive | – | COc1cc(Nc2nccc3cccnc23)ccc1Cl
inactive | – | O=C(c1ccncn1)N1CCOc2ccc(Cl)cc21
– | > 10 µM | O=C(c1cscn1)N1CCOc2ccc(Cl)cc21
inactive | – | Fc1cccc(Nc2ncnc3cccnc23)c1
– | 3.26 µM | COc1cc(Nc2noc3cccnc23)ccc1Cl

% glutamate max response | EC50 | Compound
– | > 10 µM | Clc1cccc(Nc2coc3cccnc23)c1
inactive | – | Clc1cccc(-c2nc(-c3ccccn3)no2)c1
– | > 10 µM | O=c1[nH]c(-c2ccccn2)nc2cc(Cl)ccc12
inactive | – | CCN(C(=O)c1ccccn1)c1cccc(Cl)c1
– | 0.36 µM and 0.44 µM | FC(F)Oc1cccc(Nc2noc3cccnc23)c1
inactive | – | COc1cccc(C(=O)N2CCOc3ccc(Cl)cc32)n1
– | 0.47 µM and 0.3 µM and 0.25 µM | Clc1cccc(Nc2noc3cccnc23)c1
inactive | – | Cn1ccc(NC(=O)c2ccccn2)n1
inactive | – | c1cnc2c(Nc3ccc4c(c3)OCO4)ncnc2c1
inactive | – | COc1cc(Nc2cccc3cccnc23)ccc1Cl
inactive | – | COc1ccc(Nc2ncnc3cccnc23)cc1Cl
inactive | – | COc1cc2nc(-c3cnccn3)[nH]c2cc1Cl
– | 7.22 µM | Clc1cccc(Nc2ncnc3cccnc23)c1
– | 0.6 µM | Clc1cccc(Nc2nc3ccccc3o2)c1
inactive | – | Cc1nc(NC(=O)c2ccccn2)nn1C
inactive | – | O=C(c1cncs1)N1CCOc2ccc(Cl)cc21
inactive | – | COc1cc(N2C(=O)c3cccnc3C2=O)ccc1Cl
inactive | – | Cc1cc(Nc2ncnc3cccnc23)ccc1Cl
inactive | – | Clc1cccc(-c2n[nH]c(-c3ccccn3)n2)c1
– | 1.2 µM | O=C(Nc1cccc(Cl)c1)c1ccccn1
inactive | – | O=C(c1ccco1)N1CCOc2ccc(Cl)cc21
inactive | – | O=C(c1cccc(Cl)n1)N1CCOc2ccc(Cl)cc21
inactive | – | COc1cc(N2Cc3ccccc3C2=O)ccc1Cl
